From patent publication US8188134B2, “Thiophene-carboxamides useful as inhibitors of protein kinases” (Vertex Pharmaceuticals Incorporated, priority 2006, dated 2012)

Biological target: T1, Plk1 (Homo sapiens, UniProt P53350)
T1 construct: in the presence of 15 nM Plk1 (A20-K338)
Experiment: Plk1 inhibition assay (radioactive-phosphate incorporation)
Type: biochemical
Conditions: Ki(app)
Method: The compounds of the present invention are evaluated as inhibitors of human PLK kinase using the following assays.
Compounds were screened for their ability to inhibit Plk1 using a radioactive-phosphate incorporation assay. Assays were carried out in a mixture of 25 mM HEPES (pH 7.5), 10 mM MgCl2, and 1 mM DTT. Final substrate concentrations were 50 μM [γ-33P]ATP (136 mCi 33P ATP/mmol ATP, Amersham Pharmacia Biotech/Sigma Chemicals) and 10 μM peptide (SAM68 protein Δ332-443). Assays were carried out at 25° C. in the presence of 15 nM Plk1 (A20-K338). An assay stock buffer solution was prepared containing all of the reagents listed above, with the exception of ATP and the test compound of interest. 30 μL of the stock solution was placed in a 96 well plate followed by addition of 2 μL of DMSO stock containing serial dilutions of the test compound (typically starting from a final concentration of 10 μM with 2-fold serial dilutions) in duplicate (final DMSO concentration 5%). The plate was pre-incubated for 10 minutes at 25° C. and the reaction initiated by addition of 8 μL [γ-33P]ATP (final concentration 50 μM). […]
After removing mean background values for all of the data points, Ki(app) data were calculated from non-linear regression analysis of the initial rate data using the Prism software package (GraphPad Prism version 3.0cx for Macintosh, GraphPad Software, San Diego Calif., USA). […]

T1 sequence (P53350 20-338): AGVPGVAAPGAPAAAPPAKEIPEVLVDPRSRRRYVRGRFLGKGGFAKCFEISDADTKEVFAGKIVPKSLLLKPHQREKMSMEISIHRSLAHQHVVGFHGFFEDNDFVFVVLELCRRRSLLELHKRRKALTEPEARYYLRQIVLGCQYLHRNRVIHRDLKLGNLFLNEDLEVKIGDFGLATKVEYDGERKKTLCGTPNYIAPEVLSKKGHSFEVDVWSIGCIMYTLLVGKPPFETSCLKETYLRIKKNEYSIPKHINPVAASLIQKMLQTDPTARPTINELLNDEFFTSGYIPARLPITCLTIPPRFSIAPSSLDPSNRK

Ki (the text does not say which of the two Plk1 protocols was used) [nM]	Ki (lower bound in nM, upper bound in μM, protocol not specified) [nM]	SMILES
10 to 100		CC(Oc1cc(-n2ccnc2)sc1C(N)=O)c1ccccc1Cl (centres unmarked) [I-1, 3-[1-(2-Chloro-phenyl)-ethoxy]-5-imidazol-1-yl-thiophene-2-carboxylic acid amide]
	100 to 4000	CC(Oc1cc(-c2cc(N)n[nH]2)sc1C(N)=O)c1ccccc1Cl (centres unmarked) [I-2, 5-(5-Amino-2H-pyrazol-3-yl)-3-[1-(2-chloro-phenyl)-ethoxy]-thiophene-2-carboxylic acid amide]
